We go through two molecules from US10973920B2, “Saccharide derivative of a toxic payload and antibody conjugates thereof” (priority 2014, dated 2021).

The structures appear in SMILES notation. Where “and” joins values, the source holds several entries; their conditions need not be identical. Equal entries are not always repeated. Where a SMILES comes first, the peptide text is derived from it. [ ]: non-standard residue; d: D form. The star is where a group is joined. X1 = C[C@@H](N*)[C@@H](O[C@@H]1O[C@H](CO)[C@H](O)[C@H](O)[C@H]1O)c1ccccc1; Dolaproine = CO[C@@H]([C@@H]1CCCN1)[C@@H](C)C(=O)O; Dil = CC[C@H](C)[C@H](NC)[C@@H](CC(=O)O)OC; X2 = C[C@@H](N*)[C@@H](O)c1ccccc1; NMeV = CN[C@H](C(=O)O)C(C)C

In the series the test system is cancer cells (SKOV-3 and HSC-2). Briefly: Cytotoxicity to cancer cells, PrestoBlue cell viability, 96 h. As to conditions: for IC50: concentration wherein cancer cell viability falls to 50%, cell line not given. On the procedure:
Human ovarian cancer cell line SKOV-3 (ATCC, Manassas, Va., USA) and head-and-neck squamous cell carcinoma cell line HSC-2 (Japanese Collection of Research Bioresources, Osaka, Japan) were grown according to the suppliers' recommendations. Log phase cultures were collected and cells were seeded onto 96-well plates and incubated for 24 h. Serial dilutions of test molecules were added to cells and cultures were incubated further for 96 h. Cell viability was evaluated using PrestoBlue cell viability reagent (Life Technologies, Carlsbad, Calif., USA) according to the manufacturer's instructions. Cells were incubated for 2 h, and dye reduction was measured by absorbance at 570 nm. The compounds were assayed 1-2 times in triplicate.
The results are expressed in Table 1 as IC50 values.

Take `CC[C@H](C)[C@@H]([C@@H](CC(=O)N1CCC[C@H]1[C@H](OC)[C@@H](C)C(=O)N[C@H](C)[C@@H](O[C@@H]1O[C@H](CO)[C@H](O)[C@H](O)[C@H]1O)c1ccccc1)OC)N(C)C(=O)[C@@H](NC(=O)[C@@H](NC)C(C)C)C(C)C` [MMAG, O-β-D-galactopyranosylmonomethylauristatin E] (H-[NMeV]V[Dil][Dolaproine]-X1): the IC50 is over 100 nM. Also, the “Cytotoxicity (in words)” value (concentrations up to 100 nM) is “relatively non-toxic”. Consider `CC[C@H](C)[C@@H]([C@@H](CC(=O)N1CCC[C@H]1[C@H](OC)[C@@H](C)C(=O)N[C@H](C)[C@@H](O)c1ccccc1)OC)N(C)C(=O)[C@@H](NC(=O)[C@@H](NC)C(C)C)C(C)C` [MMAE, monomethylauristatin E] (H-[NMeV]V[Dil][Dolaproine]-X2), for which the IC50 was ~10 nM and 10 nM.

What is called IC50 is the point on the concentration scale where inhibition reaches its midpoint.
